# Results taken from patent publication US6552086B1, “Sulfonamide derivatives” (Eli Lilly and Company, priority 1998, dated 2003).
# Biological target: T1, human GluR4B receptor (Homo sapiens, UniProt P48058)
# T1 construct: expressed in transfected cells
# Test: Potentiation of agonist-induced excitability of human GluR4B expressed in HEK 293 cells
# Type: cell-based
# Conditions: human GluR4B receptor expressed in HEK 293 cells
# Text: The ability of compounds of formula I to potentiate glutamate receptor-mediated response may be determined using fluorescent calcium indicator dyes (Molecular Probes, Eugene, Oreg., Fluo-3) and by measuring glutamate-evoked efflux of calcium into GluR4 transfected HEK293 cells, as described in more detail below.
# In one test, 96 well plates containing confluent monolayers of HEK cells stably expressing human GluR4B (obtained as described in European Patent Application Publication Number EP-A1-583917) are prepared. The tissue culture medium in the wells is then discarded, and the wells are each washed once with 200 μl of buffer (glucose, 10 mM, sodium chloride, 138 mM, magnesium chloride, 1 mM, potassium chloride, 5 mM, calcium chloride, 5 mM, N-[2-hydroxyethyl]-piperazine-N-[2-ethanesulfonic acid], 10 mM, to pH 7.1 to 7.3). […]
# Each test is then performed as follows. […] A second fluorescent reading is taken after 5 minutes incubation. 15 μl of 400 μM glutamate solution is then added to each well (final glutamate concentration 100 μM), and a third reading is taken. The activities of test compounds and cyclothiazide solutions are determined by subtracting the second from the third reading (fluorescence due to addition of glutamate in the presence or absence of test compound or cyclothiazide) and are expressed relative to enhance fluorescence produced by 100 μM cyclothiazide.
# T1 sequence (P48058 21-902): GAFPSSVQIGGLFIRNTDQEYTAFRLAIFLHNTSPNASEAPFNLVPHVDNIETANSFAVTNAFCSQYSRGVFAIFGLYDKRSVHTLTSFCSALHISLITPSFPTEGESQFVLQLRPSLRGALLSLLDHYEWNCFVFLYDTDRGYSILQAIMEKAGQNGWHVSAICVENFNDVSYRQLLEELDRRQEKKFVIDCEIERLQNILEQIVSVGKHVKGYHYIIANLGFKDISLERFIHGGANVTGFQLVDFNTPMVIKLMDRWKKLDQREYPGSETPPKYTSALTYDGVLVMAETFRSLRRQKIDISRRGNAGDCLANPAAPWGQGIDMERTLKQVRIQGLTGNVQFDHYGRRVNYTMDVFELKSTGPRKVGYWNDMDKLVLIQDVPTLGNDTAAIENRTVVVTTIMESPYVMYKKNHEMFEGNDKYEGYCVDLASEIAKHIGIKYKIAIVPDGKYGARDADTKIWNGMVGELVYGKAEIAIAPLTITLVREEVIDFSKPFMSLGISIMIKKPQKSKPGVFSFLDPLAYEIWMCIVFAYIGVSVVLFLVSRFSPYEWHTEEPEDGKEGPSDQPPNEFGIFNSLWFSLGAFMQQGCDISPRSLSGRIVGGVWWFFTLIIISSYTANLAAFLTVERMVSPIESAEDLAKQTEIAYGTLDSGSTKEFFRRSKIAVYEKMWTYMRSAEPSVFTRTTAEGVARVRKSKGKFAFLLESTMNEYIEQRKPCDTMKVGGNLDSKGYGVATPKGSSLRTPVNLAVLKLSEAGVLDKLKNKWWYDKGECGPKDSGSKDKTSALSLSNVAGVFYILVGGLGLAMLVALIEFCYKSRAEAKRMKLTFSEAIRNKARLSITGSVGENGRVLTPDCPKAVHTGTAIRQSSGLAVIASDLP
compound,measurement,value
NS(=O)(=O)c1cc2c(cc1Cl)NC(C1CC3C=CC1C3)NS2(=O)=O (stereo not shown) [cyclothiazide],potentiation of agonist-induced excitability,potentiate
